Structures can show the parent of a compound that is named as a salt. Where two headings read alike, the source gives them in different places. Peptide text beside a SMILES is read from it. * marks the point of attachment. Cbz = O=C(OCc1ccccc1)*; CH2F = FC*
System: PRKACA-PRKAR2A interaction (SmBiT-PRKACA / LgBiT-PRKAR2A), protein kinase A
Parameters: NanoLuc complementation counter-screen in cell extract, PRKACA with PRKAR2A, loss of luminescence, detects NanoLuc interference
Details: 0.5 h, 20 µM, inhibitor
[1] = counter-screen for NanoLuc interference
[2] = counter-screen for NanoLuc interference, Inh (PKA)

| Structure (SMILES) | Inh (PKA) [1] | other results |
| --- | --- | --- |
| COc1ccc(S(=O)(=O)Nc2cccnc2Nc2ccc(O)cc2)cc1 [UM0141402:01, ABT-751 (E7010)] | 8.683% | – |
| C[C@@H](CN1CC(=O)NC(=O)C1)N1CC(=O)NC(=O)C1 [UM0141403:01, Dexrazoxane HCl (ICRF-187, ADR-529)] | 2.168% | – |
| O=C(N/N=C/c1ccc(O)c(O)c1)c1cc2ccccc2cc1O [UM0141404:01, Dynasore] | 24% | – |
| CC(=O)Oc1cc2c(s1)CCN(C(C(=O)C1CC1)c1ccccc1F)C2 (centres unmarked) [UM0141405:01, Prasugrel] | – | Inh (PKA) [2]: 8.306% |
| Oc1ccc(-c2nc(-c3ccc(F)cc3)c(-c3ccncc3)[nH]2)cc1 [UM0141406:01, SB202190 (FHPI)] | 40.66% | – |
| CCNC(=O)Nc1ccc(-c2nc3c(c(N4CCOC[C@@H]4C)n2)CCN(C2COC2)C3)cc1 [UM0141407:01, GDC-0349] | 3.779% | – |
| C[C@]12C=CC(=O)N[C@@H]1CC[C@@H]1[C@@H]2CC[C@]2(C)[C@@H](C(=O)Nc3cc(C(F)(F)F)ccc3C(F)(F)F)CC[C@@H]12 [UM0141408:01, Dutasteride] | 7.996% | – |
| C[C@@H](O[C@H]1OCCN(Cc2n[nH]c(=O)[nH]2)[C@H]1c1ccc(F)cc1)c1cc(C(F)(F)F)cc(C(F)(F)F)c1 [UM0141409:01, Aprepitant] | 12.87% | – |
| O=C(O)CCc1ccc(NCc2cccc(Oc3ccccc3)c2)cc1 [UM0141410:01, GW9508] | 28.45% | – |
| CC[C@@H]([C@H](C)O)n1ncn(-c2ccc(N3CCN(c4ccc(OC[C@@H]5CO[C@@](Cn6cncn6)(c6ccc(F)cc6F)C5)cc4)CC3)cc2)c1=O [UM0141411:01, Posaconazole] | 3.84% | – |
| C[C@H](Nc1ncnc2nc[nH]c12)c1cc2cccc(Cl)c2c(=O)n1-c1ccccc1 [UM0141412:01, IPI-145 (INK1197)] | 8.901% | – |
| CC(C)OC(=O)OCOP(=O)(CO[C@H](C)Cn1cnc2c(N)ncnc21)OCOC(=O)OC(C)C [UM0141413:01, Tenofovir Disoproxil Fumarate] | 0.7211% | – |
| CCN1CCN(Cc2ccc(Nc3ncc(F)c(-c4cc(F)c5nc(C)n(C(C)C)c5c4)n3)nc2)CC1 [UM0141414:01, LY2835219] | 8.649% | – |
| CCOc1cc2ncc(C#N)c(Nc3ccc(F)c(Cl)c3)c2cc1NC(=O)/C=C/CN(C)C [UM0141415:01, Pelitinib (EKB-569)] | 20% | – |
| C=CC(=O)Nc1cc2c(Nc3ccc(F)c(Cl)c3)ncnc2cc1OCCCN1CCOCC1 [UM0141416:01, Canertinib (CI-1033)] | 5.945% | – |
| Oc1nc(-c2ccc(C(F)(F)F)cc2)nc2c1CSCC2 [UM0141417:01, XAV-939] | 15.47% | – |
| COc1cc2c(Oc3ccc4[nH]c(C)cc4c3F)ncnc2cc1OCCCN1CCCC1 [UM0141418:01, Cediranib (AZD217)] | 13.87% | – |
| COC(=O)C[C@H](NC(=O)[C@H](C)NC(=O)[C@@H](NC(=O)OCc1ccccc1)C(C)C)C(=O)CF [UM0141421:01, Z-VAD-FMK] (Cbz-Val-Ala-Asp(OMe)-CH2F) | 1.417% | – |
| COC(=O)CC(NC(=O)OC(C)(C)C)C(=O)CF [UM0141423:01, Boc-D-FMK] | 1.796% | – |
| Nc1nc(OCc2cc(Br)cs2)c2[nH]cnc2n1 [UM0141425:01, Lomeguatrib] | 7.16% | – |
| O=C(O)C(Cc1c[nH]c2ccccc12)N1C(=O)c2ccccc2C1=O (centres unmarked) [UM0141426:01, RG 108] | 1.344% | – |
| COC(=O)CC[C@H](NC(=O)[C@H](CC(=O)OC)NC(=O)OCc1ccccc1)C(=O)N[C@H](C(=O)N[C@@H](CC(=O)OC)C(=O)CF)C(C)C [UM0141427:01, Z-DEVD-FMK] | 1.254% | – |
| COC(=O)C[C@H](NC(=O)[C@H](CCSC)NC(=O)[C@H](CCC(N)=O)NC(=O)[C@H](CC(=O)OC)NC(=O)OCc1ccccc1)C(=O)CF [UM0141428:01, Z-DQMD-FMK] (Cbz-D(OMe)QMD(OMe)-CH2F) | 1.642% | – |
| COC(=O)C[C@H](NC(=O)[C@H](C)NC(=O)[C@@H](NC(=O)[C@H](CC(=O)OC)NC(=O)[C@@H](NC(=O)OCc1ccccc1)C(C)C)C(C)C)C(=O)CF [UM0141429:01, Z-VDVAD-FMK] (Cbz-VD(OMe)VAD(OMe)-CH2F) | -0.4508% | – |
| CC[C@H](C)[C@H](NC(=O)[C@H](CCC(=O)OC)NC(=O)[C@@H](NC(=O)OCc1ccccc1)C(C)C)C(=O)N[C@@H](CC(=O)OC)C(=O)CF [UM0141430:01, Z-VEID-FMK] (Cbz-VE(OMe)ID(OMe)-CH2F) | -0.4163% | – |
| COC[C@@H]1CCCN1S(=O)(=O)c1ccc2c(c1)C(=O)C(=O)N2 [UM0141431:01, Caspase-3/7 Inhibitor I] | 2.243% | – |
| CCCNC(=O)[C@H]1O[C@@H]1C(=O)N[C@H](C(=O)N1CCC[C@H]1C(=O)O)[C@@H](C)CC [UM0141432:01, CA 074] | -0.2737% | – |

| Structure (SMILES) | Inh (PKA) [1] | other results |
| --- | --- | --- |
| CC(C)C[C@H](NC(=O)[C@H](CCc1ccccc1)NC(=O)CN1CCOCC1)C(=O)N[C@@H](Cc1ccccc1)C(=O)N[C@@H](CC(C)C)C(=O)[C@@]1(C)CO1 [UM0141433:01, Carfilzomib (PR-171)] | 0.3082% | – |
| COC[C@H](NC(=O)c1cnc(C)s1)C(=O)N[C@@H](COC)C(=O)N[C@@H](Cc1ccccc1)C(=O)[C@@]1(C)CO1 [UM0141434:01, Oprozomib (ONX-0912)] | -0.3511% | – |
| Cn1cnc2c(F)c(Nc3ccc(Br)cc3F)c(C(=O)NOCCO)cc21 [UM0141435:01, MEK162 (ARRY-162, ARRY-438162)] | 13.83% | – |
| CCN(CC)CCCC(C)Nc1nc(C)cc(Nc2ccc3nc(C)cc(N)c3c2)n1 (centres unmarked) [UM0141436:01, NSC 23766] | 2.521% | – |
| COc1cc([C@@H]2c3cc4c(cc3[C@@H](O[C@@H]3O[C@@H]5CO[C@@H](C)O[C@H]5[C@H](O)[C@H]3O)[C@H]3COC(=O)[C@H]23)OCO4)cc(OC)c1O [UM0141437:01, Etoposide] | 1.839% | – |
| CC(C)(C)c1cnc(CSc2cnc(NC(=O)C3CCNCC3)s2)o1 [UM0141438:01, SNS-032 (BMS-387032)] | 4.184% | – |
| Cn1c(CCCC(=O)O)nc2cc(N(CCCl)CCCl)ccc21 [UM0141439:01, Bendamustine HCl] | -0.1879% | – |
| C=CC(=O)Nc1ccc2ncnc(Nc3cccc(Br)c3)c2c1 [UM0141440:01, PD168393] | 22.44% | – |
| Cc1ccccc1-n1c(Cn2cnc3c(N)ncnc32)nc2cccc(C)c2c1=O [UM0141441:01, IC-87114] | 5.733% | – |
| Cc1ccc([N+](=O)[O-])cc1S(=O)(=O)N(C)/N=C/c1cnc2ccc(Br)cn12 [UM0141442:01, PIK-75] | 46.51% | – |
| CN1CCN(CCOc2cc(OC3CCOCC3)c3c(Nc4c(Cl)ccc5c4OCO5)ncnc3c2)CC1 [UM0141443:01, Saracatinib (AZD0530)] | 2.374% | – |
| COc1cc(Nc2c(C#N)cnc3cc(OCCCN4CCN(C)CC4)c(OC)cc23)c(Cl)cc1Cl [UM0141444:01, Bosutinib (SKI-606)] | 20.21% | – |
| CC(=O)Nc1ccc(OC[C@](C)(O)C(=O)Nc2ccc([N+](=O)[O-])c(C(F)(F)F)c2)cc1 [UM0141445:01, Andarine] | – | Inh (PKA): 7.113% |
| CN1CCN(c2ccc3nc(-c4c(N)c5c(F)cccc5[nH]c4=O)[nH]c3c2)CC1 [UM0141446:01, Dovitinib (TKI-258, CHIR-258)] | – | Inh (PKA) [2]: 5.935% |
| O=C(NNc1nc2cc(F)ccc2n2cccc12)c1cnccn1 [UM0141448:01, SC 144] | 4.683% | – |
| O=[N+]([O-])c1ccc2c(c1)S(=O)(=O)C=C2 [UM0141450:01, Stattic] | 9.361% | – |
| Cc1cc(N2CCOCC2)cc2[nH]c(-c3c(NC[C@@H](O)c4cccc(Cl)c4)cc[nH]c3=O)nc12 [UM0141451:01, BMS-536924] | 41.39% | – |
| O=S(=O)(c1ccccc1)N(CC(F)(F)F)c1ccc(C(O)(C(F)(F)F)C(F)(F)F)cc1 [UM0141452:01, T0901317] | 30.09% | – |
| Nc1ncnc2c1c(-c1cccc(OCc3ccccc3)c1)cn2[C@H]1C[C@@H](CN2CCC2)C1 [UM0141453:01, NVP-AEW541] | 10.76% | – |
| Cc1[nH]c(/C=C2\C(=O)Nc3ccc(S(=O)(=O)Cc4c(Cl)cccc4Cl)cc32)c(C)c1C(=O)N1CCC[C@@H]1CN1CCCC1 [UM0141454:01, PHA-665752] | 72.78% | – |
| CNCc1cc(-c2ccccc2F)n(S(=O)(=O)c2cccnc2)c1 [UM0141455:01, TAK-438] | 1.837% | – |
| C[C@@H]1C[C@H]2[C@@H]3CCC4=CC(=O)C=C[C@]4(C)[C@@]3(F)[C@@H](O)C[C@]2(C)[C@@]1(O)C(=O)CO [UM0141456:01, Dexamethasone (DHAP)] | 0.4412% | – |
| COCC(=O)NC/C=C/c1ccc2ncnc(Nc3ccc(Oc4ccc(C)nc4)c(C)c3)c2c1 [UM0141457:01, CP-724714] | 30.01% | – |
| C[C@H]1O[C@H](O[C@H]2[C@H](O)[C@@H](O)[C@@H](O[C@H]3[C@H](O)[C@@H](O)C(O)O[C@@H]3CO)O[C@@H]2CO)[C@H](O)[C@@H](O)[C@@H]1N[C@H]1C=C(CO)[C@@H](O)[C@H](O)[C@H]1O (some centres unmarked) [UM0141458:01, Acarbose] | 2.661% | – |
| NCCC(O)(P(=O)(O)O)P(=O)(O)O [UM0141459:01, Pamidronate Disodium] | 0.7087% | – |
| CC(=O)[C@]1(O)Cc2c(O)c3c(c(O)c2[C@@H](O[C@H]2C[C@H](N)[C@H](O)[C@H](C)O2)C1)C(=O)c1ccccc1C3=O [UM0141460:01, Idarubicin HCl] | 47.84% | – |

From article PMC9995496, “A screen for MeCP2-TBL1 interaction inhibitors using a luminescence-based assay” (Scientific Reports, 2023)
